Series [1] relates to RGC-5 (rat ganglion cell). Kind of series: Retinal nerve protection under oxygen-glucose deprivation (OGD), LDH assay. The class given is cell-based. The following applies: RGC-5, OGD 15 hours, compound 20 μM, DMSO control = 100%. Summed up:
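RGC-5 cells switched to glucose-free DMEM with compound (20 μM) or 0.1% DMSO and held 15 h at 37° C under anaerobic gas (10% H2, 5% CO2, 85% N2). Cell death from released LDH (formazan, 490 nm), scaled with OGD control as 100% and normal-medium cells as 0%; triplicate wells, experiments in triplicate.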

Series [2] has as its system dry macular degeneration rat model. Kind of series: Retinal cell protection by instillation, sodium iodate rat model, H&E staining. As to conditions: SI ip 50 mg/kg, eye drops 50 μl twice a day, FIG. 2. It counts as in vivo. Here is the method:
From 3 days before the administration of sodium iodate (SI) to the 8-week-old dry macular degeneration rat model, the compound of the invention was instillated twice a day (50 μl/each eye drop instillation) and SI (ip, 50 mg/kg) was administered once. Additionally, the compound was instillated twice a day for 7 days. 7 days later, the eyeballs were extracted, followed by H&E staining to investigate retinal cell protection effect (n=3, 6 eyes). FIG. 1 is a schematic diagram illustrating the construction of the dry macular degeneration rat model and the eye drop instillation of the compounds of the invention.
The eyeballs were extracted from the dry macular degeneration rat model constructed by the same manner as described in FIG. 1, followed by histostaining.
To measure the survival rate (%) of retinal pigment epithelial cells, the eyeballs extracted from the experimental rats were fixed in 4% glutaraldehyde solution for 4 hours and embedded in paraffin. Tissue sections were prepared in 5 μm thickness, followed by H&E (Hematoxylin and Eosin) staining. Photomicrographs were taken of 2-3 different areas within the RPE (retinal pigment epithelium) layer on 100× optical microscope (Leica), and the number of stained cells was counted. The number of RPE cells in the normal rat group was regarded as 100%, based on which the survival rate was calculated.

Series [3] relates to retinal degeneration rabbit model. Description: Drug efficacy by ERG (electroretinography) 1. It counts as in vivo. Here is the method:
The normal rabbit was anesthetized, which was adapted for 20 minutes in a dark room. Retinal potential difference was measured by ERG equipment. Electroretinography is a method to observe the response of photoreceptor cells with two light intensities. Particularly, A and B waves were measured from 100 to 10000 mcd, and the retinal potential difference measured at 3000 mcd. Drug efficacy was evaluated by observing the photoreceptor cells, for which the stronger response to wave A was selected.
Evaluation of candidate substances for dry macular degeneration was performed using a retinal degeneration rabbit model. The compounds of Comparative Examples 2 and 3 were used as comparative compounds. […] The compound of Comparative Example 3 was orally administered once a day (10 mg/rabbit, dissolved in saline).

Series [4] can be described thus: Solubility in water of doxycycline forms. The class given is physicochemical. The following applies: listed as MH.
In series [5] the target is T1, RIPK1 (receptor-interacting serine/threonine-protein kinase 1) (Homo sapiens (Human), UniProt Q13546). Description: IC50 to RIPK1, immuno-precipitated enzyme with [32P]γ-ATP. It counts as biochemical. The following applies: 10-0.05 μM, 100 μM ATP. Here is the method:
RIPK1 enzyme immuno-precipitated in HEK293 (Human Embryonic Kidney 293) cell lysate was used as a kinase. The experiment was performed according to the method described in Cell. 12; 137(6):1112-23(2009).
RIPK1 protein was over-expressed in HEK293 cell line, to which lysis buffer (50 mM Tris-Cl [pH 8.0], 150 mM NaCl, 1 mM EDTA, 1% NP-40, 0.4 mM phenylmethylsulfonyl fluoride (PMSF)) was added for cell lysis. Centrifugation was performed at 13,000 rpm for 10 minutes to separate the supernatant. RIPK1 monoclonal antibody (610459, BD Bioscience) and A/G agarose beads (sc-2003, Santa Cruz Biotechnology) were added thereto, followed by immuno-precipitation in a 4° C. rotator for 12 hours.
The compounds of examples of the invention were diluted at the different concentrations of 10 μM˜0.05 μM (10, 5, 1, 0.5, 0.1, 0.05 uM) and mixed with the immuno-precipitated RIPK1 enzyme, followed by reaction in a 24° C. constant-temperature water bath for 15 minutes. Additional reaction was induced for 30 minutes at 30° C. after 100 μM of ATP and 10 μCi[^32P] γ-ATP were added thereto. The reaction mixture was washed with buffer once, to which protein loading buffer was added, followed by heating at 100° C. for 3 minutes. The reaction mixture was then loaded on 8% SDS-PAGE gel. Radioactive image of the phosphorylated RIPK1 was detected with FLA-7000 (GE healthcare). The image Quant TL program was used for the quantification. Based on the results, IC50 of the compound was calculated by using sigmaplot 10.0 program.

Series [6] concerns RGC-5 (rat ganglion cell-5). Kind of series: Retinal neuron protection under necroptosis inducing (TCZ; TNFα+cycloheximide+zVAD) condition, LDH assay. The class given is cell-based. As to conditions: RGC-5, TCZ 15 hours, compound 20 μM, DMSO control = 100%. Here is the method:
The following experiment was performed to evaluate the retinal neuron protection effect of the compounds of the invention under necroptosis inducing condition.
The retinal ganglion cell line RGC-5 (rat ganglion cell-5) was cultured in DMEM (Dulbecco's modified Eagle's medium) supplemented with 10% FBS (fetal bovine serum) and 1% penicillin/streptomycin. The cells were distributed in a 96-well plate at the density of 8×10^3 cells/well, followed by culture in a 37° C., CO2 incubator for 12 hours. The medium supplemented with TNFα (10 ng/ml), cycloheximide (10 μg/ml), and zVAD (10 μM) (TCZ) was treated with DMSO (0.1%) alone (control) or with the compounds of the invention (20 μM), followed by additional culture in a 37° C., CO2 incubator for 15 hours to induce cell death.
The level of cell death was measured by LDH (lactate dehydrogenase, Roche) assay. The level of the control LDH under TCZ condition was regarded as 100%, and the level of LDH in the cell group cultured in normal medium (10% FBS, DMEM) for the same time was used for the measurement of the relative rate of cell death. The compounds of examples of the invention were treated to wells, each compound for three wells, and then each experiment was performed in triplicate.

Series [7] deals with T1, RIPK1 (receptor-interacting serine/threonine-protein kinase 1). Description: RIPK1 inhibitory activity, autophosphorylation of immuno-precipitated RIPK1 with [32P]γ-ATP. The following applies: compound 100 μM; remaining RIPK1 phosphorylation. It counts as biochemical. Summed up: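 RIPK1 overexpressed in HEK293, immunoprecipitated, preincubated with compound 15 min at 24 °C in HEPES pH 7.6 kinase buffer with Mg2+/Mn2+. Autophosphorylation run 30 min at 30 °C with 100 μM ATP plus [32P]γ-ATP, resolved by SDS-PAGE and quantified by phosphorimaging.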

In series [8] the test system is retina of rats. The following applies: retinal detachment; cited from earlier work.
In series [9] the test system is dry macular degeneration rabbit model. Kind of series: Protection against retinal layer thickness reduction by instillation 2 (ONL thickness). It counts as in vivo. As to conditions: FIG. 8. The method, then: The eyeballs were extracted from the dry macular degeneration rabbit model used in Experimental Example 7, and the thickness of ONL was measured.

Values joined by “and” are separate entries in the source; they are usually repeats but may differ in a detail not shown here. Equal values may be shown once.

These results are taken from patent US10501473B2, “Fused heterocyclic ring compounds and method of treating retinal disease using same” (THE INDUSTRY & ACADEMIC COOPERATION IN CHUNGNAM NATIONAL …, priority 2014, dated 2019).

T1 sequence (Q13546 whole entry, species assumed): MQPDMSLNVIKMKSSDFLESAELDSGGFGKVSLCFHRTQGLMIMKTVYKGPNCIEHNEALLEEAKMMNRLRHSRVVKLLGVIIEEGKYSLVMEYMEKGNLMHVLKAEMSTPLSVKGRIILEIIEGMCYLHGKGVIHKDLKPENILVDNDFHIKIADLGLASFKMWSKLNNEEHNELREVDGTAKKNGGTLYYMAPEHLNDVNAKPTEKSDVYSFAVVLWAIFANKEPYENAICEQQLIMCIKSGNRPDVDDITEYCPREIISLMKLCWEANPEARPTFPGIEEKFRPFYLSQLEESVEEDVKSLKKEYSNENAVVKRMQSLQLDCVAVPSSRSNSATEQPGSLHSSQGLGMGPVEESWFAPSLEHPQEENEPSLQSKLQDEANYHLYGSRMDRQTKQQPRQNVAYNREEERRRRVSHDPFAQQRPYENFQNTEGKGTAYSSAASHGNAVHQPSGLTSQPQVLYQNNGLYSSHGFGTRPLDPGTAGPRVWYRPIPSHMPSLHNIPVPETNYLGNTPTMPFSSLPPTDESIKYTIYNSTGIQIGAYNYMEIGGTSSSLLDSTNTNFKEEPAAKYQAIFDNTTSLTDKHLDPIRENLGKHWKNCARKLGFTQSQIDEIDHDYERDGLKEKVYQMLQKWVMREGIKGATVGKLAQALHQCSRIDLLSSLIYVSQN

As for `CN1C(=O)NC(Cc2c[nH]c3c(Cl)cccc23)C1=O` (stereo not shown) [Comparative Example 2, 5-((7-chloro-1H-indole-3-yl)methyl)-3-methylimidazolidine-2,4-dione, reference compound], the “Death of retinal nerve cell (%)” value in [1] was 73.5% and 73.5 ± 10.3%. For the same compound, in series [2], the “retina degeneration by histostaining” value was “retina degeneration was not observed”.

For `C[C@H]1c2cccc(O)c2C(=O)C2=C(O)[C@]3(O)C(=O)C(C(N)=O)=C(O)[C@@H](N(C)C)[C@@H]3[C@@H](O)[C@@H]21` [Comparative Example3-MH, doxycycline], the “response compared to normal (100%)” value in [3] (ERG, FIG. 11, listed as 3-MH) is 74.1%; in [3] (ERG, FIG. 11, listed as Comparative Example 3-MH) it was 74.1%. In addition, the Wave ratio in series [3] (SI model, ERG wave A after one week, eye drops 100 μl twice a day, Comparative Example 3 oral 10 mg/rabbit once a day, Normal = 1.00) is given as 0.74. For the same compound, the “Drug efficacy (%)” value in series [3] (SI model, ERG, Normal = 100, Veh. = 0) is 46%. In [4], the solubility in water result is “not dissolved in water”.

In the case of `O=C(c1cc2c(-c3ccc(F)cc3)cccc2s1)N1CCCC1` [Example 35, (4-(4-fluorophenyl)benzo[b]thiophene-2-yl)(pyrrolidine-1-yl)methanone], the “Death of retinal nerve cell (%)” value in series [1] is 90.0 ± 3.3%; in series [6], 89.2 ± 8.2%. Moreover, half-maximal inhibition in series [5] (IC50) was put at 360 nM. In series [7], the activity at 100 µM stood at 3.5 ± 2.1%.

In the case of `O=C(c1cc2c(-c3cccs3)cccc2s1)N1CCOCC1` [Example 74, morpholino(4-(thiophene-2-yl)benzo[b]thiophene-2-yl)methanone], in series [1], the “Death of retinal nerve cell (%)” value is 51.4 ± 10.3%. In addition, the half-inhibitory concentration (IC50) (usually the concentration needed to halve the response being measured) in series [5] is 65.6 nM. In [7], this compound had an activity at 100 µM of 4%.

As for `CN1C(=O)C(Cc2c[nH]c3ccccc23)NC1=S` (stereo not shown) [Comparative Example 1, 5-((1H-indole-3-yl)methyl)-3-methyl-2-thioxothioxoimidazolidine-4-one, reference compound], the “Death of retinal nerve cell (%)” value in [1] was 89.5% and 89.5 ± 10.5%. Also, the 50% inhibitory concentration (IC50) in series [5] amounted to 95.5 nM. In [2], the “retina degeneration by histostaining” value is “retina degeneration was not observed”. Besides, in [8], the “phosphorylation of RIPK1 in the retina” value was “phosphorylation was reduced” and the photoreceptor degeneration entry is “photoreceptor degeneration was also protected”.

As for `O=C(c1cc2c(-c3ccc(F)cc3)ccnc2s1)N1CCOCC1` [Example 4, (4-(4-fluorophenyl)thieno[2,3-b]pyridine-2-yl)(morpholino)methanone], the “Death of retinal nerve cell (%)” value in [1] was 57.8 ± 8.9%. The same compound had an IC50 in series [5] of 1120 nM. In series [7], this compound returned an activity at 100 µM of 3 ± 1.4%.

As for `O=C(c1cc2c(-c3ccc(F)cc3)cccc2s1)N1CCSCC1` [Example 51, (4-(4-fluorophenyl)benzo[b]thiophene-2-yl)(thiomorpholino)methanone], in series [1], the “Death of retinal nerve cell (%)” value turned out to be 44.7 ± 6.3%. In series [5], this compound returned an IC50 of 217 nM. Further, the activity at 100 µM in series [7] worked out at 2.5 ± 0.7%.

`O=C(c1cc2c(-c3ccc(F)cc3F)cccc2s1)N1CCOCC1` [Example 63, (4-(2,4-difluorophenyl)benzo[b]thiophene-2-yl)(morpholino)methanone]: in [1], the “Death of retinal nerve cell (%)” value is listed as 48.3 ± 13.7%. The same compound gave a half-maximal inhibitory concentration (IC50) in [5] of 230 nM. This compound also showed an activity at 100 µM in series [7] of 1.5 ± 0.7%.

Turning to `O=C(c1cc2c(-c3ccc(F)cc3)cccc2s1)N1CCOCC1` [Example 39, (4-(4-fluorophenyl)benzo[b]thiophene-2-yl)(morpholino)methanone], the figures for the “Death of retinal nerve cell (%)” value in series [1] and in [6] were 46.2 ± 0.8% and 74.9 ± 9.1%, respectively. In [5], this compound came in with an IC50 of 193 nM. The “retinal layer thickness protection effect” value in [9] was 70˜80% and 70-80%. Besides, in series [2], the “retina degeneration by histostaining” value is recorded as “retina degeneration was not observed”. Moreover, in [7], the activity at 100 µM turned out to be 3.7 ± 2.6%.

In turn, `O=C(c1cc2c(-c3ccsc3)cccc2s1)N1CCOCC1` [Example 76, morpholino(4-(thiophene-3-yl)benzo[b]thiophene-2-yl)methanone] yielded an IC50 in [5] of 61.2 nM. This compound also gave an activity at 100 µM in [7] of 1.5 ± 0.7%.

Consider `O=C(c1cc2c(-c3ccccc3F)cccc2s1)N1CCOCC1` [Example 30, (4-(2-fluorophenyl)benzo[b]thiophene-2-yl)(morpholino)methanone], for which, in series [1], the “Death of retinal nerve cell (%)” value was determined as 51.0 ± 5.9%. In series [5], this compound gave a half-maximal inhibitory concentration (IC50) of 102 nM. Moreover, in series [7], the activity at 100 µM worked out at 0.4 ± 0.1%.

On to `O=C(c1cc2c(-c3cccc(F)c3)cccc2s1)N1CCOCC1` [Example 36, (4-(3-fluorophenyl)benzo[b]thiophene-2-yl)(morpholino)methanone], for which, in series [1], the “Death of retinal nerve cell (%)” value came out at 58.0 ± 3.8%. This compound also yielded an IC50 in series [5] of 17.7 nM. In addition, in [7], the activity at 100 µM was found to be 4 ± 2.8%.

Take `O=C(c1cc2c(-c3ccc(F)cc3)cccc2s1)N1CCCOCC1` [Example 52, (4-(4-fluorophenyl)benzo[b]thiophene-2-yl) (1,4-oxazepane-4-yl)methanone]: the “Death of retinal nerve cell (%)” value came out at 52.8 ± 4.4% in series [1] and 80.8 ± 2.8% in series [6]. In series [5], this compound gave an IC50 of 8170 nM. This compound also returned an activity at 100 µM in series [7] of 5.5 ± 4.9%.

For the compound `O=C(c1cc2c(-c3ccoc3)cccc2s1)N1CCOCC1` [Example 75, (4-(furan-3-yl)benzo[b]thiophene-2-yl)(morpholino)methanone], the “Death of retinal nerve cell (%)” value in series [1] was 41.7 ± 7.0%. In addition, the IC50 in [5] was 73.4 nM. The activity at 100 µM in [7] is 3.5 ± 3.5%.
